In paper doi:10.1101/2021.04.29.441652v1 (biorxiv, 2021):

molecular target: human σ2 receptor (TMEM97) (Homo sapiens, UniProt Q5BJF2); assay: biochemical; type: Expi293 membranes; settings: read-out: % of control remaining
Sequence (Q5BJF2 whole entry): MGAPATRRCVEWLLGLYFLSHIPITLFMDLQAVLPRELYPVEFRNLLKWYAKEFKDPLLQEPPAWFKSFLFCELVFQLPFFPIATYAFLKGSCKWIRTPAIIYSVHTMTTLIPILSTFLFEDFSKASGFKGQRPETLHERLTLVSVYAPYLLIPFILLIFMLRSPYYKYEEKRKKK

| Compound | remaining activity at 1 µM [%] |
| --- | --- |
| CN(C)S(=O)(=O)N(C)CC(=O)N[C@@H]1COc2cc(F)ccc2C1 [ZINC000618647685] | 91.7 |
| O=C(CCc1cc(Br)ccc1F)N1CC[C@@H](CN2CCCC2)C1 [ZINC000135482356] | 21.7 |
| O=C(NC[C@@H]1CNCCO1)N1CCN(S(=O)(=O)C2CC2)CC1 [ZINC000529344158] | 135 |
| COCC(COC)N1CCN(S(=O)(=O)c2cnc(C)n2C)CC1 [ZINC000625246444] | 105 |
| C[C@H](N)[C@@H]1CCCCN1C(=O)NCc1cn2ccccc2n1 [ZINC000416873685] | 127 |
| CC[C@H](C)CNC[C@H]1CCC[C@H]1NS(C)(=O)=O [ZINC000245533477] | 98.5 |
| CC1(C)Cc2cc(C(=O)N3CCC[C@@H](N4CCCC4)CC3)ccc2O1 [ZINC000584233558] | 22.7 |
| COC(=O)c1ccccc1NC(=O)CN1C[C@@H](c2ccccc2)C[C@@H]1C [ZINC000532978237] | 119 |
| Cn1nnc2c(N3C[C@H]4CC[C@@H](C3)N4C(=O)c3cc[nH]n3)ncnc21 [ZINC001058732454] | 93.6 |
| CCN1CC[C@@H](N2CCC(NC(=O)c3cncnc3C)CC2)C1=O [ZINC001002391793] | 90.1 |
| CN1CC[C@](O)(CNC(=O)c2ccc([N+](=O)[O-])c3cccnc23)C1 [ZINC000358062278] | 102 |
| C[C@@H]1[C@H](Cc2ccccc2)CCN1Cc1cc(=O)n2cc(Cl)ccc2n1 [ZINC000472356611] | 45.9 |
| CCOc1cc2c(cc1NC(=O)C[C@@H]1NCc3ccccc31)O[C@@H](C)C2 [ZINC000659267272] | 101 |
| COC(=O)C[C@H]1CCCN1C[C@@H](O)Cc1ccc(C(F)(F)F)cc1 [ZINC000247001079] | 61.2 |
| COCCN1C[C@H](C(=O)N[C@H]2C[C@H](NC(=O)c3cn[nH]c3)C2)CC1=O [ZINC000973057271] | 111 |
| CCc1ccc(F)cc1C(=O)N1CCCN(CCOC(C)C)CC1 [ZINC001196417557] | 71.9 |
| CS[C@@H]1CCN(Cc2cnc(C)n2-c2ccccc2)C1 [ZINC000295103757] | 114 |
| Cc1c(C(=O)NC2CN(C(=O)c3cnns3)C2)ccc2cncn12 [ZINC000995014137] | 123 |
| CN(Cc1ccccc1)C(=O)CNC(=O)C(=O)N[C@H]1CCCNC1 [ZINC000419445843] | 82.5 |
| CN(C[C@@H](O)CCc1ccccc1)[C@H]1CCN(c2ccccc2F)C1=O [ZINC000248559983] | 87.4 |
| CCN(CC)[C@H]1CCN(CC(=O)N[C@@H](c2ccccc2)c2cccs2)C1 [ZINC000464767692] | 73.8 |
| N#Cc1ccccc1NC(=O)CCN1CCC(O)(c2c(F)cccc2F)CC1 [ZINC000186482223] | 95.3 |
| C[C@@H]1CCN2C(=O)N(CCCN3CCC[C@@H](C(N)=O)C3)C(=O)[C@H]2C1 [ZINC000349353698] | 142 |
| CN(CC(=O)Nc1c(Cl)cccc1Cl)C[C@@H]1CC1(C)C [ZINC000662345330] | 42.3 |
| CN(C)c1ccc(C(=O)N2CC(O)(CNC(=O)c3cnn[nH]3)C2)nc1 [ZINC001043817104] | 88.5 |
| Cc1ccc2c(c1)[C@H](NC(=O)NC[C@@H]1CCN(C(C)C)C1)CCC2 [ZINC000575186982] | 22.9 |

| Compound | remaining activity at 1 µM [%] |
| --- | --- |
| C[C@H](C(=O)NCC1(O)CN(C(=O)Cn2ncnn2)C1)C1CCCC1 [ZINC001046914841] | 104 |
| CN1CC[C@](O)(CNC(=O)c2cc3cc([N+](=O)[O-])ccc3s2)C1 [ZINC000358051108] | 102 |
| Cc1csc2nc(CN[C@H]3C[C@H](OCc4ccccc4)C3(C)C)cc(=O)n12 [ZINC000567338231] | 34.7 |
| CCc1cc(NC(=O)[C@@H]2CC[C@H](C3CC3)N2)ccc1C [ZINC000407281203] | 80.8 |
| O=C(C[C@H]1C=CCC1)NCC1(O)CCN(C(=O)c2cncnc2)CC1 [ZINC001074556982] | 89.6 |
| CN1CCCC[C@@H]1C(=O)NCC1(O)CN(C(=O)CCc2cn[nH]c2)C1 [ZINC001043772717] | 116 |
| Cc1cccc(C)c1OC[C@H](C)NC(=O)C(=O)NC[C@@H]1CCCNC1 [ZINC000418924570] | 64.9 |
| CC[C@@H](C(N)=O)N1CCC(NC(=O)[C@H]2Cc3ccc(Cl)cc32)CC1 [ZINC001004070100] | 85.5 |
| CCN(CC)[C@H]1CCN(C(=O)NCCCc2cccc(Cl)c2)C1 [ZINC000465804078] | 67.7 |
| C[C@@H](C(=O)NC[C@H](C)N1CCCC1)c1c(Cl)cccc1Cl [ZINC000586751050] | 98.2 |
| COC[C@@H](O)CN1CC[C@H](NC(=O)c2c(C)c(C)nn(C)c2=O)C1 [ZINC001365986475] | 109 |
| CCC1(N2CCOCC2)CCN(C(=O)C2=NN(C)C(=O)CC2)CC1 [ZINC000863492725] | 179 |
| c1ccc(SC[C@@H]2CCN(c3cc(N4CCCCC4)ncn3)C2)cc1 [ZINC000301468116] | 88.5 |
| CC(C)(CN1C(=O)N2CCC[C@@H]3C[C@@]32C1=O)N1CCc2ccccc2C1 [ZINC000924470947] | 45.5 |
| O=C(Nc1cccc(OC(F)(F)F)c1)C(=O)N1CCC[C@@H](N2CCCC2)CC1 [ZINC000120571916] | 17.7 |
| CN1CCC[C@H]1C(=O)NCC1(O)CN(C(=O)CCc2ncccn2)C1 [ZINC001042098162] | 102 |
| COc1cccc2c1OC[C@H](NC(=O)C(=O)N[C@@H]1CC(=O)N(C)C1)C2 [ZINC001341791776] | 222 |
| CN1CC[C@]2(CCN(C(=O)C(=O)Nc3cccc4nonc34)C2)C1 [ZINC000847525041] | 59.3 |
| Cc1cc(C(=O)N2CC[C@H](N(C)Cc3ccc(C)c(C)c3)C2)on1 [ZINC000971070823] | 90.9 |
| C[C@@H](Cc1ccc2c(c1)CCCC2)N[C@H]1CCN(C2CCOCC2)C1=O [ZINC000657922756] | 1.7 |
| CC1(C)[C@H](NC(=O)[C@]2(O)CCN(Cc3ccccc3)C2)[C@@H]2CCCO[C@@H]21 [ZINC000531059007] | 87.5 |
| CCC(CC)n1ccc(CN2CC=C(c3ccc(O)cc3)CC2)n1 [ZINC000448446275] | 38.7 |
| CCCC1CCC(CN2CCN(CC(=O)N(CC)CC)CC2)CC1 (centres unmarked) [ZINC000539406733] | 34 |
| Cc1cnc(CN[C@@H](CO)CCC(C)(C)C)n1C [ZINC000341348768] | 103 |
| CN(C)S(=O)(=O)N(C)CC(=O)N[C@@H]1C[C@H](NCCO)C12CCC2 [ZINC001202928172] | 117 |
| CCCN1CCC[C@H]1C(=O)NCc1cnccc1C(F)(F)F [ZINC000621202771] | 61.4 |

| Compound | remaining activity at 1 µM [%] |
| --- | --- |
| Cc1nc(C)c(CC(=O)N2CC[C@H](NC(=O)c3cnn[nH]3)C2)c(O)n1 [ZINC000938242679] | 107 |
| CCc1ocnc1C(=O)NC[C@H]1CN(C[C@@H](C)CC)CCO1 [ZINC001035320653] | 119 |
| O=C(Nc1ccc2ncsc2c1)C(=O)N1CCCN(C2CCCC2)CC1 [ZINC000172648663] | 96.3 |
| CON(C)CCNC(=O)C(=O)Nc1ccc2c(c1)C(=O)N(C)C2=O [ZINC000850493342] | 136 |
| O=C(N[C@H]1CCN(c2cc(Cl)c(O)nn2)C1)c1c[nH]c(=O)cn1 [ZINC001058532763] | 95.3 |
| C[C@@H](NC(=O)C(=O)NCCCN1CCC[C@H](C(N)=O)C1)C1CCC1 [ZINC000671981913] | 106 |
| C[C@H](NC1CC1)C(=O)NCc1ccc(C(=O)N=c2cc[nH]cc2)cc1 [ZINC000576277949] | 67.2 |
| CCC(=O)N1CCN([C@H]2CCN(C(=O)c3c[nH]c(=O)cn3)C2)CC1 [ZINC000956566890] | 112 |
| Cc1cc([N+](=O)[O-])ccc1NC(=O)CN1CCC[C@@H]([C@@H]2CCCCO2)C1 [ZINC000595790972] | 96.1 |
| CCN(C(=O)c1cnccn1)[C@@H]1CCN(CC2CCCCCC2)C1 [ZINC001033739722] | 24.6 |
| COc1ccc(Oc2ccc([N+](=O)[O-])cc2C(=O)N(C)C[C@H]2CCCN2C)cc1 [ZINC000421699823] | 96.4 |
| CC[C@@H]1CCC[C@H](NC(=O)[C@H](C)N2CCCCCC2)C1 [ZINC000525245955] | 93.6 |
| Cn1nncc1C(=O)NC[C@H]1CC[C@@H](NC(=O)c2cnns2)C1 [ZINC000981250423] | 97.2 |
| c1ccc(-n2cncn2)c(CN2CCC[C@H](N3CCCC3)CC2)c1 [ZINC000678272880] | 55.7 |
| Cc1ccc2c(c1)CC[C@H]2N[C@@H](CO)Cc1ccccc1 [ZINC000766031584] | 63.2 |
| C[C@@H]1CCC[C@H](NC(=O)CN2CCN(CCC3=CCCCC3)CC2)C1 [ZINC000450551910] | 16 |
| O=C1CCCCN1[C@@H]1CCCN(Cc2cc(-c3ccccc3)no2)C1 [ZINC000370893072] | 82.1 |
| CCOCCNC(=O)CN1C[C@@H](O)[C@H](NC(=O)[C@@]23COC[C@@H]2C3)C1 [ZINC001193095852] | 112 |
| CC(=O)N1CCN(C(=O)C(=O)Nc2cnn(-c3ccccn3)c2)CC1 [ZINC000531495018] | 99.3 |
| O=C(NCC1CN(C(=O)[C@H]2CC[C@H]3CCCCN32)C1)c1cnccn1 [ZINC001000730978] | 81.3 |
| C[C@H]1C[C@@H](NC(=O)C(=O)Nc2cnn(CC(F)F)c2)CN1C1CC1 [ZINC000158577469] | 111 |
| Cc1cc(C(=O)CN2CC[C@@H]([C@H]3CCCO3)C2)c(C)n1C1CC1 [ZINC000886836194] | 24.1 |
| CCC[C@@H](C(=O)N(C)C[C@H]1CCCN1C)c1ccccc1 [ZINC000421701270] | 76.1 |
| Cc1cc(NC(=O)C(=O)N2CC[C@@H](NC(=O)c3cncn3C)C2)no1 [ZINC000941361883] | 111 |
| O[C@@H](CN[C@@H](Cc1ccccc1F)c1ccccc1)CN1CCCC1 [ZINC000429522320] | 60.1 |
